The source of these data is patent US20150329558A1, “FUSED HETEROCYCLIC COMPOUNDS AS ION CHANNEL MODULATORS” (Gilead Sciences, Inc., priority 2011, published 2015).

The target in one data set is hERG potassium channel (Homo sapiens, UniProt Q12809). As to the kind of experiment: hERG screening assay (PatchXpress, CHO cells). The class given is cell-based. The settings on record: for HERG*: % inhibition at 1 μM. On the procedure: Compounds were also tested for their effect to block the hERG K^+ channel.
Compounds were screened to test their activity in blocking the hERG potassium channel at AVIVA Biosciences (San Deigo, Calif., USA). The hERG channel is heterologously expressed in a CHO (Chinese Hamster Ovary) cell line. Cells were maintained with standard tissue culture procedures and stable channel expression was maintained with 500 μg/mL G418 in the culture medium. Cells were harvested for testing on the PatchXpress 7000A automated patch clamp with Accumax (Innovative Cell Technologies, San Diego, Calif.) to isolate single cells.
The following solutions were used for electrophysiological recordings. The external solution contained: 2 mM CaCl2; 2 mM MgCl2; 4 mM KCl; 150 mM NaCl; 10 mM Glucose; 10 mM HEPES (pH 7.4 with 1M NaOH; osmolarity, ˜310 mOsm). The internal solution contained: 140 mM KCl, 10 mM MgCl2, 6 mM EGTA, 5 mM HEPES, 5 mM ATP (pH adjusted to 7.25 with KOH; osmolarity, ˜295 mOsm).
hERG channels were activated when the voltage was first stepped to −50 mV for 300 ms from the −80 mV holding potential and then stepped to +20 mV for 5 seconds. At +20 mV the channels open and then largely inactivate, so the currents are relatively small. Upon returning to −50 mV from +20 mV, hERG currents transiently become much larger as inactivation is rapidly removed and then the channel closes. The first step to −50 mV for 300 ms was used as a baseline for measuring the peak amplitude during the step to −50 mV after channel activation. The peak tail current at −50 mV was measured both under control conditions and after addition of compound, each cell serving as its own control.
All compounds were prepared as 10 mM DMSO stocks in glass vials. Stock solutions were mixed by vigorous vortexing and sonication for about 2 minutes at room temperature. For testing, compounds were diluted in glass vials using an intermediate dilution step in pure DMSO and then further diluted to working concentrations in external solution. Dilutions were prepared no longer than 20 minutes before use.
For the electrophysiological recordings, after achieving the whole-cell configuration, cells were monitored for 90 seconds to assess stability and washed with external solution for 66 seconds. The voltage protocol described above was then applied to the cells every 12 seconds and throughout the whole procedure. Only cells with stable recording parameters and meeting specified health criteria were allowed to enter the compound addition procedure.
External solution containing 0.1% DMSO (vehicle) was applied to the cells first to establish the control peak current amplitude. After allowing the current to stabilize for 3 to 5 minutes, 1 μM and then 10 μM test compounds were applied. Each compound concentration was added 4 times and cells were kept in test solution until the effect of the compound reached steady state or for a maximum of 12 minutes. After addition of test compound, a positive control (1 μM Cisapride) was added and must block >95% of the current for the experiment to be considered valid. Washout in the external solution compartment was performed until the recovery of the current reached steady state.
(hERG is a cardiac potassium channel; its block is linked to QT prolongation.)

Data set [1] is described as follows: Microsomal stability assay, dog. The class given is in vitro ADME. The following applies: metabolic stability, dog liver microsomes 0.5 mg/mL, substrate 3 uM. In outline: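 Liver microsomes at 0.5 mg/mL protein in 100 mM KPO4 buffer, incubated with 3 uM compound and NADPH-regenerating system, run in duplicate. Samples taken at 2, 12, 25, 45 and 65 min and quenched in MeOH/ACN/water before analysis.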
(In general: Microsomes from liver hold many membrane-bound enzymes, among them those of drug oxidation.)

Molecules are shown by their SMILES. Where “and” joins values, the source holds several entries; their conditions need not be identical. Identical values can stand only once. A value given as a limit tells only on which side of the number the result lay.

Sequence of hERG potassium channel (Q12809 whole entry): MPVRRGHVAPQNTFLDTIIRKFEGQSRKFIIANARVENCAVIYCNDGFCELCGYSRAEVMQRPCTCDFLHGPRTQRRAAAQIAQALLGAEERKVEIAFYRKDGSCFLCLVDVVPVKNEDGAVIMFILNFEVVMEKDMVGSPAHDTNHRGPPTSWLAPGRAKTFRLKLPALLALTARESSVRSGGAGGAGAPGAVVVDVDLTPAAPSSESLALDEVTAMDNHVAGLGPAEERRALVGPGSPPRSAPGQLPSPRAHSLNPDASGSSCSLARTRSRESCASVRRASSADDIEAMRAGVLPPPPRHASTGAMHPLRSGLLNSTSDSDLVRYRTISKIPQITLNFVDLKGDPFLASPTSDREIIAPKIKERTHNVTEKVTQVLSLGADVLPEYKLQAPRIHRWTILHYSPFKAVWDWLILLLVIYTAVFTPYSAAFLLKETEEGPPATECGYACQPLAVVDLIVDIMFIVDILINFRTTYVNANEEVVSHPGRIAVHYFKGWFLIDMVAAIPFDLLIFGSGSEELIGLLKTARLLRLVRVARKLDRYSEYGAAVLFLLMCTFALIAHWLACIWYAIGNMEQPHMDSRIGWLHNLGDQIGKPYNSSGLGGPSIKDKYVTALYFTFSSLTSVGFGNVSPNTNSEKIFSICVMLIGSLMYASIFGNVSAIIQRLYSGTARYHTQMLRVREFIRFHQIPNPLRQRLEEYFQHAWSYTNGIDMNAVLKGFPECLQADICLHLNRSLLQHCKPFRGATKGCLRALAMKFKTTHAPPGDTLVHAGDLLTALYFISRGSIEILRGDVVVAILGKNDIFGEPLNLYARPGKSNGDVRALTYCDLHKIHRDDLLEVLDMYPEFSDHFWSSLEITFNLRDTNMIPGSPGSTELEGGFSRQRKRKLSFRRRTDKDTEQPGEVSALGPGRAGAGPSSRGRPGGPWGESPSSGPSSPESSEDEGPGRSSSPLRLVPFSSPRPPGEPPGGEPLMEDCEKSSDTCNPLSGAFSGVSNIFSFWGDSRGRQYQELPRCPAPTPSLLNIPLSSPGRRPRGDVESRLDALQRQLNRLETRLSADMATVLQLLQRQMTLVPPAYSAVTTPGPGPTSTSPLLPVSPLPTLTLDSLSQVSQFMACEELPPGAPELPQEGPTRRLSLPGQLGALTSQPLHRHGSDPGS

In the case of `Cc1noc(Cn2nnc3ccc(-c4ccc(OC(F)(F)F)cc4)cc3c2=O)n1` [II-3, 3-((3-methyl-1,2,4-oxadiazol-5-yl)methyl)-6-(4-(trifluoromethoxy)phenyl)benzo[d][1,2,3]triazin-4(3H)-one], at hERG potassium channel, the “HERG*” value was 15.5% and 16%. The inhibition – broadly, the drop in the measured response relative to a control, in per cent – at 10 µM on hERG potassium channel (human, CHO cells that heterologously express the hERG channel, pH 7.4, at 10 μM) turned out to be 24.5%. In data set [1], the MS Dog THalf is 303 min.
Consider `O=c1c2cc(-c3ccc(OC(F)(F)F)cc3)ccc2nnn1Cc1noc(C2CC2)n1` [II-14, 3-((5-cyclopropyl-1,2,4-oxadiazol-3-yl)methyl)-6-(4-(trifluoromethoxy)phenyl)benzo[d][1,2,3]triazin-4(3H)-one], for which, on hERG potassium channel, the “HERG*” value is on record as less than 10%. This molecule also gave an MS Dog THalf in data set [1] of 284 min.
The matching figures for `O=c1c2cc(-c3ccc(OC(F)(F)F)cc3)ccc2nnn1CCc1ccncn1` [II-17, 3-(2-(pyrimidin-4-yl)ethyl)-6-(4-(trifluoromethoxy)phenyl)benzo[d][1,2,3]triazin-4(3H)-one]: 42% and 50 min.
The matching figures for `O=c1c2cc(-c3ccc(OC(F)(F)F)cc3)ccc2nnn1CCc1ncccn1` [II-18, 3-(2-(pyrimidin-2-yl)ethyl)-6-(4-(trifluoromethoxy)phenyl)benzo[d][1,2,3]triazin-4(3H)-one]: 30% and 74 min.
As for `O=c1c2cc(-c3ccc(OC(F)(F)F)cc3)ccc2nnn1CCOc1ncccn1` [II-32, 3-(2-(pyrimidin-2-yloxy)ethyl)-6-(4-(trifluoromethoxy)phenyl)benzo[d][1,2,3]triazin-4(3H)-one], the “HERG*” value on hERG potassium channel was found to be 45%. The molecule also displayed an MS Dog THalf in data set [1] of 36 min.
The matching figures for `N#Cc1ccnc(OCCn2nnc3ccc(-c4ccc(OC(F)(F)F)cc4)cc3c2=O)n1` [II-36, 2-(2-(4-oxo-6-(4-(trifluoromethoxy)phenyl)benzo[d][1,2,3]triazin-3(4H)-yl)ethoxy)pyrimidine-4-carbonitrile]: 21% and 124 min.
The corresponding values for `O=c1c2cc(-c3ccc(OC(F)(F)F)cc3)ccc2nnn1C1CCNCC1` [II-38, 3-(piperidin-4-yl)-6-(4-(trifluoromethoxy)phenyl)benzo[d][1,2,3]triazin-4(3H)-one] are 58% and 68 min.
The corresponding values for `O=c1c2cc(-c3ccc(OC(F)(F)F)cc3)ccc2nnn1CC1(CN2CCOCC2)CC1` [II-40, 3-((1-(morpholinomethyl)cyclopropyl)methyl)-6-(4-(trifluoromethoxy)phenyl)benzo[d][1,2,3]triazin-4(3H)-one] are 81% and 2 min.
Turning to `O=c1c2cc(-c3ccc(OC(F)(F)F)cc3)ccc2nnn1Cc1noc(-c2ccccn2)n1` [II-54, 3-((5-(pyridin-2-yl)-1,2,4-oxadiazol-3-yl)methyl)-6-(4-(trifluoromethoxy)phenyl)benzo[d][1,2,3]triazin-4(3H)-one], at hERG potassium channel, the “HERG*” value worked out at 23%. Moreover, in data set [1], the MS Dog THalf was found to be 28 min.
The corresponding values for `O=c1c2cc(-c3ccc(OC(F)(F)F)cc3)ccc2nnn1Cc1nnc(C2CC2)o1` [II-67, 3-((5-cyclopropyl-1,3,4-oxadiazol-2-yl)methyl)-6-(4-(trifluoromethoxy)phenyl)benzo[d][1,2,3]triazin-4(3H)-one] are 41% and 270 min.
Turning to `Cc1ncc(Cn2nnc3ccc(-c4ccc(OC(F)(F)F)cc4)cc3c2=O)o1` [II-95, 3-((2-methyloxazol-5-yl)methyl)-6-(4-(trifluoromethoxy)phenyl)benzo[d][1,2,3]triazin-4(3H)-one], the “HERG*” value on hERG potassium channel is less than 10%. For the same molecule, the MS Dog THalf in data set [1] amounted to 169 min.
Consider `O=c1c2cc(-c3ccc(OC(F)(F)F)cc3)ccc2cnn1Cc1ncccn1` [III-5, 2-(pyrimidin-2-ylmethyl)-7-(4-(trifluoromethoxy)phenyl)phthalazin-1(2H)-one], for which the “HERG*” value on hERG potassium channel came out at 13%. This molecule also displayed an MS Dog THalf in data set [1] of 66 min.
The matching figures for `O=c1c2cc(-c3ccc(OC(F)(F)F)cc3)ccc2cnn1CCn1cccn1` [III-9, 2-(2-(1H-pyrazol-1-yl)ethyl)-7-(4-(trifluoromethoxy)phenyl)phthalazin-1(2H)-one]: 37% and 27 min.
The corresponding values for `COc1cc(OC)nc(Cn2ncc3ccc(-c4ccc(OC(F)(F)F)cc4)cc3c2=O)n1` [III-19, 2-((4,6-dimethoxypyrimidin-2-yl)methyl)-7-(4-(trifluoromethoxy)phenyl)phthalazin-1 (2H)-one] are 23% and 129 min.
The corresponding values for `O=c1c2cc(-c3ccc(OC(F)(F)F)cc3)ccc2cnn1CCOc1ncccn1` [III-28, 2-(2-(pyrimidin-2-yloxy)ethyl)-7-(4-(trifluoromethoxy)phenyl)phthalazin-1 (2H)-one] are 51% and 51 min.
In the case of `Cc1noc(Cn2cnc3ccc(-c4ccc(OC(F)(F)F)cc4)cc3c2=O)n1` [IV-6, 3-((3-methyl-1,2,4-oxadiazol-5-yl)methyl)-6-(4-(trifluoromethoxy)phenyl)quinazolin-4(3H)-one], the “HERG*” value on hERG potassium channel was less than 10%. In data set [1], this molecule displayed an MS Dog THalf of 158 min.
The corresponding values for `Cc1nc(Cn2cnc3ccc(-c4ccc(OC(F)(F)F)cc4)cc3c2=O)no1` [IV-9, 3-((5-methyl-1,2,4-oxadiazol-3-yl)methyl)-6-(4-(trifluoromethoxy)phenyl)quinazolin-4(3H)-one] are less than 10% and 356 min.
The matching figures for `O=C1c2cc(-c3ccc(OC(F)(F)F)cc3)ccc2CCN1Cc1ncccn1` [IX-1, 2-(pyrimidin-2-ylmethyl)-7-(4-(trifluoromethoxy)phenyl)-3,4-dihydroisoquinolin-1(2H)-one]: 17% and 157 min.
The corresponding values for `O=C1c2cc(-c3ccc(C(F)(F)F)cc3)ccc2CCN1Cc1ncccn1` [IX-3, 2-(pyrimidin-2-ylmethyl)-7-(4-(trifluoromethyl)phenyl)-3,4-dihydroisoquinolin-1(2H)-one] are 14% and 320 min.
For `O=C(c1ncccn1)N1CCc2ccc(-c3ccc(C(F)(F)F)cc3)cc2C1` [IX-7, pyrimidin-2-yl(7-(4-(trifluoromethyl)phenyl)-3,4-dihydroisoquinolin-2(1H)-yl)methanone], the “HERG*” value on hERG potassium channel is given as less than 10%. For the same molecule, the MS Dog THalf in data set [1] was greater than 395 min.
`O=C(c1cccnn1)N1CCc2ccc(-c3ccc(C(F)(F)F)cc3)cc2C1` [IX-17, Pyridazin-3-yl(7-(4-(trifluoromethyl)phenyl)-3,4-dihydroisoquinolin-2 (1H)-yl) methanone]: the “HERG*” value at hERG potassium channel is 76%. This molecule also showed an MS Dog THalf in data set [1] greater than 395 min.
The corresponding values for `Cn1cnc(C(=O)N2CCc3ccc(-c4ccc(C(F)(F)F)cc4)cc3C2)c1` [IX-39, (1-methyl-1H-imidazol-4-yl)(7-(4-(trifluoromethyl)phenyl)-3,4-dihydroisoquinolin-2(1H)-yl)methanone] are 35% and 256 min.
In data set [1], `O=C1c2cc(-c3ccc(C(F)(F)F)cc3)ccc2OCN1Cc1ccccn1` [VIII-1, 3-(pyridin-2-ylmethyl)-6-(4-(trifluoromethyl)phenyl)-2H-benzo[e][1,3]oxazin-4(3H)-one] came in with an MS Dog THalf of 210 min.
`O=C1c2cc(-c3ccc(OC(F)(F)F)cc3)ccc2OCN1Cc1ccccn1` [VIII-3, 3-(pyridin-2-ylmethyl)-6-(4-(trifluoromethoxy)phenyl)-2H-benzo[e][1,3]oxazin-4(3H)-one]: on hERG potassium channel, the “HERG*” value was less than 10%. The same molecule had an MS Dog THalf in data set [1] of 164 min.
As for `O=C1c2cc(-c3ccc(OC(F)(F)F)cc3)ccc2OCN1Cc1ncccn1` [VIII-20, 3-(pyrimidin-2-ylmethyl)-6-(4-(trifluoromethoxy)phenyl)-2H-benzo[e][1,3]oxazin-4(3H)-one], on hERG potassium channel, the “HERG*” value was less than 10%.
